Assay results: PubChem BioAssay AID256 (DTP/NCI, 2004)
“And” between values parts separate entries of the source, which are not always exact repeats. Equal values may be shown once. Inconclusive results and toxic doses are left out.

Test system: CD2F1 mice, L1210 leukemia ip, survival T/C
Experiment: NCI In Vivo Anticancer Drug Screen. Data for tumor model L1210 Leukemia (intraperitoneal) in CD2F1 (CDF1) mice
Conditions: higher = longer survival
Outline: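 Compound-dosed mice with transplantable tumor versus matched vehicle controls; endpoint ratio T/C reported.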

[1] = endpoint: mean survival time, dose: 100.0 mg/kg/injection, schedule: Q04DX003 (ip), vehicle: other
[2] = endpoint: mean survival time, dose: 200.0 mg/kg/injection, schedule: Q04DX003 (ip), vehicle: other
[3] = endpoint: mean survival time, dose: 400.0 mg/kg/injection, schedule: Q04DX003 (ip), vehicle: other
[4] = endpoint: mean survival time, dose: 50.0 mg/kg/injection, schedule: Q01DX009 (ip), vehicle: saline with Tween-80
[5] = endpoint: mean survival time, dose: 100.0 mg/kg/injection, schedule: Q01DX009 (ip), vehicle: saline with Tween-80
[6] = endpoint: mean survival time, dose: 25.0 mg/kg/injection, schedule: Q01DX009 (ip), vehicle: water
[7] = endpoint: mean survival time, dose: 50.0 mg/kg/injection, schedule: Q01DX009 (ip), vehicle: water
[8] = endpoint: mean survival time, dose: 100.0 mg/kg/injection, schedule: Q01DX009 (ip), vehicle: water
[9] = endpoint: mean survival time, dose: 100.0 mg/kg/injection, schedule: Q04DX003 (ip), vehicle: saline with Tween-80
[10] = endpoint: mean survival time, dose: 200.0 mg/kg/injection, schedule: Q04DX003 (ip), vehicle: saline with Tween-80
[11] = endpoint: mean survival time, dose: 400.0 mg/kg/injection, schedule: Q04DX003 (ip), vehicle: saline with Tween-80
[12] = endpoint: mean survival time, dose: 100.0 mg/kg/injection, schedule: Q01DX001 (ip), vehicle: saline with Tween-80
[13] = endpoint: mean survival time, dose: 200.0 mg/kg/injection, schedule: Q01DX001 (ip), vehicle: saline with Tween-80
[14] = endpoint: mean survival time, dose: 400.0 mg/kg/injection, schedule: Q01DX001 (ip), vehicle: saline with Tween-80

Nn1cnnc1SCc1ccccc1
T/C [1]: 100 % of control
T/C [2]: 97 % of control
T/C [3]: 105 % of control

CC(=O)OC1C(N=[N+]=[N-])C(OC(C)=O)C(OC(C)=O)C(OC(C)=O)C1OC(C)=O (stereo not drawn)
T/C (endpoint: mean survival time, dose: 100.0 mg/kg/injection, schedule: Q01DX001 (ip), vehicle: Klucel (hydroxypropylcellulose) (HPC)): 93 % of control
T/C (endpoint: mean survival time, dose: 200.0 mg/kg/injection, schedule: Q01DX001 (ip), vehicle: Klucel (hydroxypropylcellulose) (HPC)): 95 % of control
T/C (endpoint: mean survival time, dose: 400.0 mg/kg/injection, schedule: Q01DX001 (ip), vehicle: Klucel (hydroxypropylcellulose) (HPC)): 103 % of control

CC(=O)NCC1CCN(C(C)=O)CC1
T/C (endpoint: mean survival time, dose: 100.0 mg/kg/injection, schedule: Q04DX003 (ip), vehicle: saline): 94 % of control
T/C (endpoint: mean survival time, dose: 200.0 mg/kg/injection, schedule: Q04DX003 (ip), vehicle: saline): 96 % of control
T/C (endpoint: mean survival time, dose: 400.0 mg/kg/injection, schedule: Q04DX003 (ip), vehicle: saline): 96 % of control

O=C(CNC(=O)Nc1ccc(F)cc1)N/N=C/c1c(O)ccc2ccccc12
T/C [4]: 92 % of control
T/C [5]: 96 % of control
T/C (endpoint: mean survival time, dose: 200.0 mg/kg/injection, schedule: Q01DX009 (ip), vehicle: saline with Tween-80): 96 % of control

C[S+](C)c1ccccc1
T/C (endpoint: mean survival time, dose: 12.5 mg/kg/injection, schedule: Q04DX002 (ip), vehicle: saline): 100 % of control
T/C (endpoint: mean survival time, dose: 25.0 mg/kg/injection, schedule: Q04DX002 (ip), vehicle: saline): 96 % of control
T/C (endpoint: mean survival time, dose: 50.0 mg/kg/injection, schedule: Q04DX002 (ip), vehicle: saline): 100 % of control

CC(C)C(O)(C(=O)O)C(C)O (stereo not drawn)
T/C (endpoint: mean survival time, dose: 12.5 mg/kg/injection, schedule: Q01DX009 (ip), vehicle: water): 96 % of control
T/C [6]: 94 % of control
T/C [7]: 88 % of control
T/C [8]: 89 % of control

NC(=O)Cc1c(Cl)n(-c2ccccc2)c2ccccc12
T/C (endpoint: mean survival time, dose: 50.0 mg/kg/injection, schedule: Q04DX003 (ip), vehicle: Klucel (hydroxypropylcellulose) (HPC)): 95 % of control
T/C (endpoint: mean survival time, dose: 100.0 mg/kg/injection, schedule: Q04DX003 (ip), vehicle: Klucel (hydroxypropylcellulose) (HPC)): 102 % of control
T/C (endpoint: mean survival time, dose: 200.0 mg/kg/injection, schedule: Q04DX003 (ip), vehicle: Klucel (hydroxypropylcellulose) (HPC)): 95 % of control

O=S(=O)(NC1CCc2ccccc21)c1ccccc1 (stereo not drawn)
T/C [9]: 98 % of control
T/C [10]: 97 % of control
T/C [11]: 98 % of control

O=C(Nc1ccccc1)OCCCl
T/C [9]: 100 % of control
T/C [10]: 97 % of control
T/C [11]: 100 % of control

CC1(c2cc(F)cc3ccccc23)OC(=O)c2ccccc21 (stereo not drawn)
T/C (endpoint: median survival time, dose: 25.0 mg/kg/injection, schedule: Q04DX003 (ip), vehicle: saline with Tween-80): 100 % of control
T/C (endpoint: median survival time, dose: 50.0 mg/kg/injection, schedule: Q04DX003 (ip), vehicle: saline with Tween-80): 100 % of control
T/C (endpoint: median survival time, dose: 100.0 mg/kg/injection, schedule: Q04DX003 (ip), vehicle: saline with Tween-80): 100 % of control
T/C (endpoint: median survival time, dose: 200.0 mg/kg/injection, schedule: Q04DX003 (ip), vehicle: saline with Tween-80): 100 % of control

ClCCN(CCCl)c1ccc(CCN2CCCCC2)cc1
T/C (endpoint: mean survival time, dose: 3.12 mg/kg/injection, schedule: Q01DX009 (ip), vehicle: Klucel (hydroxypropylcellulose) (HPC)): 106 % of control
T/C (endpoint: mean survival time, dose: 6.25 mg/kg/injection, schedule: Q01DX009 (ip), vehicle: Klucel (hydroxypropylcellulose) (HPC)): 106 % of control
T/C (endpoint: mean survival time, dose: 12.5 mg/kg/injection, schedule: Q01DX009 (ip), vehicle: Klucel (hydroxypropylcellulose) (HPC)): 121 % of control and 108 % of control
T/C (endpoint: mean survival time, dose: 25.0 mg/kg/injection, schedule: Q01DX009 (ip), vehicle: Klucel (hydroxypropylcellulose) (HPC)): 118 % of control

C=Cc1ccc(OC2OC(COC(C)=O)C(OC3OC(COC(C)=O)C(OC(C)=O)C(OC(C)=O)C3OC(C)=O)C(OC(C)=O)C2OC(C)=O)cc1 (stereo not drawn)
T/C (endpoint: mean survival time, dose: 75.0 mg/kg/injection, schedule: Q01DX001 (ip), vehicle: other): 92 % of control
T/C (endpoint: mean survival time, dose: 150.0 mg/kg/injection, schedule: Q01DX001 (ip), vehicle: other): 95 % of control
T/C (endpoint: mean survival time, dose: 300.0 mg/kg/injection, schedule: Q01DX001 (ip), vehicle: other): 92 % of control

O=C1C(n2ccc(=O)[nH]c2=O)CCN1CCO (stereo not drawn)
T/C [1]: 102 % of control
T/C [2]: 102 % of control
T/C [3]: 96 % of control

CCOC(=O)C(C)(Br)C(=O)OCC
T/C [4]: 104 % of control
T/C [5]: 105 % of control

O=C(COc1cc(Cl)c(Cl)cc1Cl)OCCN(CCOC(=O)COc1cc(Cl)c(Cl)cc1Cl)C(=O)COc1ccc(Cl)cc1
T/C [1]: 93 % of control
T/C [2]: 96 % of control
T/C [3]: 107 % of control

Cc1cc(C)c(/C=N/NC(=O)NN)c(C)c1
T/C [9]: 91 % of control
T/C [10]: 96 % of control
T/C [11]: 88 % of control

O=[N+]([O-])c1ccc(N2N=NC3C4CCC(C4)C32)cc1 (stereo not drawn)
T/C [9]: 93 % of control
T/C [10]: 91 % of control
T/C [11]: 96 % of control

O=C(C1CC1c1ccccc1)N1CCC(Nc2ccccc2)CC1 (stereo not drawn)
T/C (endpoint: mean survival time, dose: 100.0 mg/kg/injection, schedule: Q04DX002 (ip), vehicle: other): 102 % of control
T/C (endpoint: mean survival time, dose: 200.0 mg/kg/injection, schedule: Q04DX002 (ip), vehicle: other): 94 % of control
T/C (endpoint: mean survival time, dose: 400.0 mg/kg/injection, schedule: Q04DX002 (ip), vehicle: other): 90 % of control

CCOC(=O)C(C)Oc1ccc(Cl)cc1 (stereo not drawn)
T/C [6]: 107 % of control
T/C [7]: 106 % of control
T/C [8]: 106 % of control
T/C (endpoint: mean survival time, dose: 200.0 mg/kg/injection, schedule: Q01DX009 (ip), vehicle: water): 107 % of control
T/C (endpoint: mean survival time, dose: 400.0 mg/kg/injection, schedule: Q01DX009 (ip), vehicle: water): 109 % of control

CCOc1ccc(NC(=O)OCC(C)C)cc1
T/C [12]: 97 % of control
T/C [13]: 101 % of control
T/C [14]: 89 % of control

NC(=O)c1[nH]cnc1/N=N/N(CCO)Cc1ccccc1
T/C [9]: 98 % of control
T/C [10]: 95 % of control
T/C [11]: 95 % of control

O=C1C(c2ccccc2)=C(c2ccccc2)c2cc(Br)c(Br)cc21
T/C (endpoint: mean survival time, dose: 50.0 mg/kg/injection, schedule: Q01DX001 (ip), vehicle: saline with Tween-80): 93 % of control
T/C [12]: 93 % of control
T/C [13]: 93 % of control

COc1cc(C(C)c2cc3c(cc2OCCO)OCO3)cc(OC)c1OC (stereo not drawn)
T/C (endpoint: median survival time, dose: 25.0 mg/kg/injection, schedule: Q01DX009 (ip), vehicle: saline with Tween-80): 96 % of control and 106 % of control
T/C (endpoint: median survival time, dose: 50.0 mg/kg/injection, schedule: Q01DX009 (ip), vehicle: saline with Tween-80): 106 % of control and 109 % of control
T/C (endpoint: median survival time, dose: 100.0 mg/kg/injection, schedule: Q01DX009 (ip), vehicle: saline with Tween-80): 106 % of control and 110 % of control

CCC(CC)(C[NH-])C[NH-].[Cl][Pt+2][Cl]
T/C (endpoint: mean survival time, dose: 1.56 mg/kg/injection, schedule: Q04DX003 (ip), vehicle: saline): 105 % of control
T/C (endpoint: mean survival time, dose: 3.12 mg/kg/injection, schedule: Q04DX003 (ip), vehicle: saline): 118 % of control
T/C (endpoint: mean survival time, dose: 6.25 mg/kg/injection, schedule: Q04DX003 (ip), vehicle: saline): 119 % of control
T/C (endpoint: mean survival time, dose: 12.5 mg/kg/injection, schedule: Q04DX003 (ip), vehicle: saline with Tween-80): 319 % of control
T/C (endpoint: mean survival time, dose: 12.5 mg/kg/injection, schedule: Q04DX003 (ip), vehicle: saline): 155 % of control
T/C (endpoint: mean survival time, dose: 25.0 mg/kg/injection, schedule: Q04DX003 (ip), vehicle: saline with Tween-80): 307 % of control
T/C (endpoint: mean survival time, dose: 25.0 mg/kg/injection, schedule: Q04DX003 (ip), vehicle: saline): 227 % of control
T/C (endpoint: mean survival time, dose: 50.0 mg/kg/injection, schedule: Q04DX003 (ip), vehicle: saline with Tween-80): 86 % of control
T/C (endpoint: median survival time, dose: 1.5 mg/kg/injection, schedule: Q01DX009 (ip), vehicle: carboxymethylcellulose (CMC)): 234 % of control
T/C (endpoint: median survival time, dose: 3.0 mg/kg/injection, schedule: Q01DX009 (ip), vehicle: carboxymethylcellulose (CMC)): 203 % of control
T/C (endpoint: median survival time, dose: 6.0 mg/kg/injection, schedule: Q01DX001 (ip), vehicle: carboxymethylcellulose (CMC)): 203 % of control
T/C (endpoint: median survival time, dose: 6.0 mg/kg/injection, schedule: Q01DX009 (ip), vehicle: carboxymethylcellulose (CMC)): 109 % of control
T/C (endpoint: median survival time, dose: 9.0 mg/kg/injection, schedule: Q01DX001 (ip), vehicle: carboxymethylcellulose (CMC)): 312 % of control
T/C (endpoint: median survival time, dose: 9.0 mg/kg/injection, schedule: Q01DX009 (ip), vehicle: carboxymethylcellulose (CMC)): 98 % of control
T/C (endpoint: median survival time, dose: 12.0 mg/kg/injection, schedule: Q01DX001 (ip), vehicle: carboxymethylcellulose (CMC)): 312 % of control
T/C (endpoint: median survival time, dose: 15.0 mg/kg/injection, schedule: Q01DX001 (ip), vehicle: carboxymethylcellulose (CMC)): 106 % of control

c1ccc([P+](c2ccccc2)(c2ccccc2)C2OCCO2)cc1
T/C [12]: 112 % of control

c1ccc(N=NC2(c3ccccc3)CC(c3ccccc3)=NN(c3ccccc3)C2NNc2ccccc2)cc1 (stereo not drawn)
T/C [12]: 96 % of control
T/C [13]: 102 % of control
T/C [14]: 96 % of control
